Experimental data as given in PMC8645336, “Benchmarking a highly selective USP30 inhibitor for enhancement of mitophagy and pexophagy” (Life Science Alliance, 2021).

How the values were obtained:
Assay in all cases: biochemical
Parameters in all cases: Ubiquigent DUB profiler selectivity panel, remaining enzyme activity as % of control
Details in all cases: read-out: % of control remaining
AMSH-LP (+Zinc) = biological target: T1, AMSH-LP (+Zinc) (Homo sapiens, UniProt Q96FJ0)
T1 construct: gene STAMBPL1; +Zinc
T1 sequence (Q96FJ0 1-436): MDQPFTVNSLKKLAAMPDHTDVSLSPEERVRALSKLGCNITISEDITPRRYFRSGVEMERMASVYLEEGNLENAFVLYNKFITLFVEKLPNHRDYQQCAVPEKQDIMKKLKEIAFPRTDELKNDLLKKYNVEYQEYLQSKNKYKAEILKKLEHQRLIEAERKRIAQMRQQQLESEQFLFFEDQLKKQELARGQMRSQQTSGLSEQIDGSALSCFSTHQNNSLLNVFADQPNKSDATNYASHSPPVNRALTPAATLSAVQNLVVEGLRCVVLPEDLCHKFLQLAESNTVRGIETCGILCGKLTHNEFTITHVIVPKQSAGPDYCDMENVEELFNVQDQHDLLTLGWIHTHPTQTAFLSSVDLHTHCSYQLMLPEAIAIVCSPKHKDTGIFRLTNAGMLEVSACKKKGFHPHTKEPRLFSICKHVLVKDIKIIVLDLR
Procedure, shortened: (§1)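 In YFP-PRKN-overexpressing hTERT-RPE1 cells, 1 h antimycin A plus oligomycin A (1 μM each) with CMPD-39, then Western blot of TOMM20 ubiquitylation. Target engagement: 2 h compound, then 10 min HA-Ub-PA at 37°C, read as USP30 shift. DUB panel (>40 enzymes) screened at 1-100 μM.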

[1] = biological target: T2, USP14 (+Proteasome-VS@Kd) (Homo sapiens, UniProt P54578)
T2 construct: +Proteasome-VS@Kd
T2 sequence (P54578 whole entry): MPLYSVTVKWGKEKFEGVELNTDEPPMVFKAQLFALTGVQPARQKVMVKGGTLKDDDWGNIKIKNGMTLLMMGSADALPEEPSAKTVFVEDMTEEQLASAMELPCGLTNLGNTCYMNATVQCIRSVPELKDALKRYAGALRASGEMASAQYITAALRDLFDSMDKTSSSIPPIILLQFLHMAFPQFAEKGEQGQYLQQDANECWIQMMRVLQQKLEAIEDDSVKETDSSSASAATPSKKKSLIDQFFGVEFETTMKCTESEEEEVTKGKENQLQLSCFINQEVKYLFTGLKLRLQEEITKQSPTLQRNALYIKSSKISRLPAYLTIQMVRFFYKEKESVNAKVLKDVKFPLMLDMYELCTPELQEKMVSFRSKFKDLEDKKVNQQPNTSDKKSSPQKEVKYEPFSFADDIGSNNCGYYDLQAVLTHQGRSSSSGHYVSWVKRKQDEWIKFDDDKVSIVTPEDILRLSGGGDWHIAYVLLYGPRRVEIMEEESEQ
Procedure, shortened: as §1

USP19 = biological target: T3, USP19 (Homo sapiens, UniProt O94966)
T3 sequence (O94966 1-1318): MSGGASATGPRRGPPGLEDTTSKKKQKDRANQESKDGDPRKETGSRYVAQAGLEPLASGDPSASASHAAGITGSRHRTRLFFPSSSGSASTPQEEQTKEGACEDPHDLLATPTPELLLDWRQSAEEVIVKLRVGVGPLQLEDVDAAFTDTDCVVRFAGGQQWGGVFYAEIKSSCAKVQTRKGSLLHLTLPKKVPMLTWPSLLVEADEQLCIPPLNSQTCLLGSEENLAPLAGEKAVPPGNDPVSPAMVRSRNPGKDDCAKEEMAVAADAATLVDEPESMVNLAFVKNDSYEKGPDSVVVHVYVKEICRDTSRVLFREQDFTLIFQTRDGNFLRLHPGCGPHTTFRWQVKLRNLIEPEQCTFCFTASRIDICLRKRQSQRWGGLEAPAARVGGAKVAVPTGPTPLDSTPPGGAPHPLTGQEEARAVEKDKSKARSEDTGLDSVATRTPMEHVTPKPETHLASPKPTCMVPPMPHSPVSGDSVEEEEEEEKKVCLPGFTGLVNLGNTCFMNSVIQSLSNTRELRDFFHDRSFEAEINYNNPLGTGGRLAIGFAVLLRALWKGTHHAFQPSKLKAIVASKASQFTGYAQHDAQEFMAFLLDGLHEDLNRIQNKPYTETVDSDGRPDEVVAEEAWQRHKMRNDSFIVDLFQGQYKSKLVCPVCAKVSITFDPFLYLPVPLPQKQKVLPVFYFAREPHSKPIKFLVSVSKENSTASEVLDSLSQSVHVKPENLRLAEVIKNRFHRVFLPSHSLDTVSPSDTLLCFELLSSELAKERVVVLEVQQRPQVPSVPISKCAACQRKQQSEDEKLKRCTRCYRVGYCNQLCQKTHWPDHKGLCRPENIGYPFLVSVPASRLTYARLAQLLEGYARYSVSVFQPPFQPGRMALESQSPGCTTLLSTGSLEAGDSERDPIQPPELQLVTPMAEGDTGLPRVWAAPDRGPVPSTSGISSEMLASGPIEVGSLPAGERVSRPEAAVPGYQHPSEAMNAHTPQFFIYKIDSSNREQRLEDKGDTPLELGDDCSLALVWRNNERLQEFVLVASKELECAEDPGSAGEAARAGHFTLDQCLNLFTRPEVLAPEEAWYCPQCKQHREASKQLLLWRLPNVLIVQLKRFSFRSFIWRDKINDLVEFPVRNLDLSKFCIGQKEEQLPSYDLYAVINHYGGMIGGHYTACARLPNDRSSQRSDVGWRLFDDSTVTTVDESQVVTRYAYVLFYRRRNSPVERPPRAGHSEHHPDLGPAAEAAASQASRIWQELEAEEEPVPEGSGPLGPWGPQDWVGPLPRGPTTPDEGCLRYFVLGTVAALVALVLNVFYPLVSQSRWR
Procedure, shortened: as §1

USP9x = USP9x (Homo sapiens, UniProt Q93008)
USP9x, sequence (Q93008 whole entry): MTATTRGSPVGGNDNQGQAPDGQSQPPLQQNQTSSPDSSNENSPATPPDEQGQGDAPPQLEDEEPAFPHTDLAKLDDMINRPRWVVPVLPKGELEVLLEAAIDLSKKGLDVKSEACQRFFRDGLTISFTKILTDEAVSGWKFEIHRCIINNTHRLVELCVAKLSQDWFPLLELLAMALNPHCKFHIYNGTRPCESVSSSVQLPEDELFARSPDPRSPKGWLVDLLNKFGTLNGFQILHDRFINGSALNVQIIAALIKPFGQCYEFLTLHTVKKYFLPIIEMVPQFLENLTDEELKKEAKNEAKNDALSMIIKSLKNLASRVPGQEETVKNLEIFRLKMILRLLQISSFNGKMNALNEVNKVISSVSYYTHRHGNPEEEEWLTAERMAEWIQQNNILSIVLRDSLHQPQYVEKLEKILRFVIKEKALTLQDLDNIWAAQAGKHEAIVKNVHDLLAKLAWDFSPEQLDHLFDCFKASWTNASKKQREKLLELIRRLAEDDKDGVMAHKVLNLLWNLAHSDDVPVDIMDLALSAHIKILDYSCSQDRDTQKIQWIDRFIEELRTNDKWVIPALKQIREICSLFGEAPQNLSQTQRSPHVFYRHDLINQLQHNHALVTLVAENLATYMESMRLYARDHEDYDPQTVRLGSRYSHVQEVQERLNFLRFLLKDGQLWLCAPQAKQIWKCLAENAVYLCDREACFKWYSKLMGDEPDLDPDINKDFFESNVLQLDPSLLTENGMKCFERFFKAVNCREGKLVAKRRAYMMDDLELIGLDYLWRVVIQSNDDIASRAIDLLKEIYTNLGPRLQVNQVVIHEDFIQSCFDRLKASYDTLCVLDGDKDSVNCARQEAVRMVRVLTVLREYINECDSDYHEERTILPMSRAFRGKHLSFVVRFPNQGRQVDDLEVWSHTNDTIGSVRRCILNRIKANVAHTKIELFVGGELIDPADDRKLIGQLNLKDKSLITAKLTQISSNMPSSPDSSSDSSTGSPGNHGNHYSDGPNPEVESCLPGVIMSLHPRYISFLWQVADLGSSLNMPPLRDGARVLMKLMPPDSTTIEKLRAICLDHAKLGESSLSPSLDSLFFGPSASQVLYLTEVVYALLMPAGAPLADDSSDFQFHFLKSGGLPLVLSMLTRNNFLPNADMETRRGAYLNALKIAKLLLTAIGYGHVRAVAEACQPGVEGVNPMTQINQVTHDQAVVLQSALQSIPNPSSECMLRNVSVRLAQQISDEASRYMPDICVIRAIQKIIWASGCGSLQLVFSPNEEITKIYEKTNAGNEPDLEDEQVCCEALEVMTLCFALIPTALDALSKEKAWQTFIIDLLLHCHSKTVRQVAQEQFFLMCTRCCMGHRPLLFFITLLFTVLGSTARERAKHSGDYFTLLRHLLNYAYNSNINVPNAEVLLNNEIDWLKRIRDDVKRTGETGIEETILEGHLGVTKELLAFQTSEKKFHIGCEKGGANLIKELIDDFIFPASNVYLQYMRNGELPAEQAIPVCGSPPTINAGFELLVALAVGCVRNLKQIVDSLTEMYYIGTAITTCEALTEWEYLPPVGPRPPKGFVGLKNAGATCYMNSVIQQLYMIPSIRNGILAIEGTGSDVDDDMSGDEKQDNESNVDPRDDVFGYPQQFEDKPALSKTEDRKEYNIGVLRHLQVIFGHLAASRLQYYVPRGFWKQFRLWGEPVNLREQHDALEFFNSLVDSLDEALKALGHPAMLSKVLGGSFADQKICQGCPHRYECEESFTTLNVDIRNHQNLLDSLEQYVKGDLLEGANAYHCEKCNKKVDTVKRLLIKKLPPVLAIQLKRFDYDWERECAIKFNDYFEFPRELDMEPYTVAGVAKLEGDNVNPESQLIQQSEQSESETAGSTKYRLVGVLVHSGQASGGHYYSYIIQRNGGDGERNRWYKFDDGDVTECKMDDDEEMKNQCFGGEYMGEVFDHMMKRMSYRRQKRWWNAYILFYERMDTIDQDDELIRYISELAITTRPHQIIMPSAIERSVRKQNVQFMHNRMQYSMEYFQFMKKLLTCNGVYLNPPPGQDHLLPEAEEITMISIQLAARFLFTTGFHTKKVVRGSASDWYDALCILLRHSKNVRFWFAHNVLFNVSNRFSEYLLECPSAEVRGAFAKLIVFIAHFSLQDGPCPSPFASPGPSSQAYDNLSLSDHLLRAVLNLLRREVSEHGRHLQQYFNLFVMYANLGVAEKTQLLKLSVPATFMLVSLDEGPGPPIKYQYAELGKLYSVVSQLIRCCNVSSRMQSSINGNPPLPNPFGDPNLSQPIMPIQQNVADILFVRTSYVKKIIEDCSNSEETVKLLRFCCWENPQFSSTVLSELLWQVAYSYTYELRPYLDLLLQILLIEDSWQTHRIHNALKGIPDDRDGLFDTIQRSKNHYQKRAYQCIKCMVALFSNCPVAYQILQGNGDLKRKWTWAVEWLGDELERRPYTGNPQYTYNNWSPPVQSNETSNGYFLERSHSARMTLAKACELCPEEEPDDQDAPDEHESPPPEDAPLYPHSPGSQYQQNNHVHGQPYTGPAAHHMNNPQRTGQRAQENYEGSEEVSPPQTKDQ
Procedure, shortened: as §1

remaining activity at 1 µM (AMSH-LP (+Zinc)): 106% | remaining activity at 10 µM (AMSH-LP (+Zinc)): 101% | remaining activity at 100 µM (AMSH-LP (+Zinc)): 97.8% | remaining activity at 1 µM [1]: 107% | remaining activity at 10 µM [1]: 100% | remaining activity at 100 µM [1]: 96.1% | remaining activity at 1 µM (USP19): 107% | remaining activity at 10 µM (USP19): 99.7% | remaining activity at 100 µM (USP19): 99.8% | remaining activity at 1 µM (USP9x): 104% | remaining activity at 10 µM (USP9x): 108% | remaining activity at 100 µM (USP9x): 98.3%
SMILES: CC(C)(C)NS(=O)(=O)c1ccc(NC(=O)[C@H](Cc2ccccc2)NC(=O)c2ccc(F)cc2)cc1 [compound 39, CMPD-39]
